Data on 34 compounds can be found in ChEMBL document CHEMBL1201862, “PubChem BioAssay data set” (2004).

The target of assay [1] is Luciferin 4-monooxygenase (Photinus pyralis, UniProt P08659). The assay can be described thus: firefly luciferase enzyme inhibitors, dose response, biochemical, luminescence (AID 1891).
Assay [2] is described as follows: Luminescence Cell-Based Dose Confirmation HTS to Identify Inhibitors of Platelet Dense Granule Release. [Related pubchem assays: 1663 (Primary HTS), 1678 (Summary of Project)]. It is filed as functional.
Another assay has as its system INS1. Briefly: beta cell apoptosis inhibitors, cytokine rescue, dose response, luminescence, retest (AID 449756).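 Note: cell death triggered by IL-1 beta plus TNF-alpha plus IFN-gamma mixture; protective hits raise ATP signal compared with cytokine alone wells.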 It is filed as functional, cell-based. As to conditions: Rattus norvegicus.
In the next assay the test system is Vero. Briefly: cells. It is filed as functional. As to conditions: Chlorocebus sabaeus.
The target in assay [3] is T1, Short transient receptor potential channel 4 (Mus musculus, UniProt Q9QUQ5).
T1 sequence (Q9QUQ5 whole entry): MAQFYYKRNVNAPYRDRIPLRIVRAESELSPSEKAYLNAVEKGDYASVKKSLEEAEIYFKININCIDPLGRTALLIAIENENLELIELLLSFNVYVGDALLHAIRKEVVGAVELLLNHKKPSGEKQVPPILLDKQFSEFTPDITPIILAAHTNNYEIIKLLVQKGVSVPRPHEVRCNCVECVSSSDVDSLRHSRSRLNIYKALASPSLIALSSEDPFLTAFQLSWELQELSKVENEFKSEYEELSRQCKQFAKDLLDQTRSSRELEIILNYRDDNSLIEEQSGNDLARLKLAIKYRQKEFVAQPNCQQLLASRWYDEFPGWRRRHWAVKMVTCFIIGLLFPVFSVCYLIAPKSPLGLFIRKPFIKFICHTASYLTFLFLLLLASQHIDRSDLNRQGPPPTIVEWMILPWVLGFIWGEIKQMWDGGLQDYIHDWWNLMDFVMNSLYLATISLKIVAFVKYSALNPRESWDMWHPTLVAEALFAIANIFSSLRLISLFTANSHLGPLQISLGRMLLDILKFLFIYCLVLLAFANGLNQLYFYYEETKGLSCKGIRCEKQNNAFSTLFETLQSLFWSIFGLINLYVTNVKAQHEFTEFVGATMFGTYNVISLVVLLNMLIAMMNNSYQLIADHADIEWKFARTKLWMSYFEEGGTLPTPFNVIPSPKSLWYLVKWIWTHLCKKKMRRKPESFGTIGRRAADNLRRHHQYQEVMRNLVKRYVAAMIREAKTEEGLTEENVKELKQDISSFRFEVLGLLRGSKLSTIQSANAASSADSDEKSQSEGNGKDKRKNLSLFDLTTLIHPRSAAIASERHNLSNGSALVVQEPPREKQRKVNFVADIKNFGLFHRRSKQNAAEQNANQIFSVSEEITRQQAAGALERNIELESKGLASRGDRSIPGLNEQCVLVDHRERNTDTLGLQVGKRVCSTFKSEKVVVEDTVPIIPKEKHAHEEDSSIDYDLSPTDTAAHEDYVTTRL
The assay can be described thus: mouse TRPC4 channel inhibitors, dose response, cell-based, HEK293 TRPC4/mu-opioid, Fluo-4 calcium (AID 434942).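 Note: potency of inhibitors blocking the TRPC4 calcium response.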 Format: functional.

A further assay deals with Paired box protein Pax-8 (Homo sapiens, UniProt Q06710). Briefly: inhibitors of PAX8-driven TPO luciferase reporter, dose response, RMG-I cells, cherry-pick (AID 687027).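 Note: luciferase reporter driven by Pax8 target thyroperoxidase promoter measured by SteadyGlo luminescence.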 Format: functional, cell-based.
The target of assay [4] is T2, Corticotropin-releasing factor receptor 2/Corticotropin-releasing factor-binding protein (Homo sapiens, UniProt P24387+Q13324).
T2 sequence (Q13324 whole entry): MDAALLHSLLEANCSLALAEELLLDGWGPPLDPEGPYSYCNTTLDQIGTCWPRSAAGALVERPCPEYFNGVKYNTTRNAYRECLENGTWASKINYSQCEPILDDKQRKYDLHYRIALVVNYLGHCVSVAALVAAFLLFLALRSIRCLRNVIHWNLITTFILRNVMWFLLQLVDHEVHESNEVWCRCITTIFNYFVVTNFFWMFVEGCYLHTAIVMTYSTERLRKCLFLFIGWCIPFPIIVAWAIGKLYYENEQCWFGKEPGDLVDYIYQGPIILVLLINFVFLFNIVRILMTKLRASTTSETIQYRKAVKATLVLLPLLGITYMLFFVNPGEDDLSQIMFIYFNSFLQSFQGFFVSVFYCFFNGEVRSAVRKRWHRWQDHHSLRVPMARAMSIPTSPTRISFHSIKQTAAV
T2 sequence (P24387 whole entry): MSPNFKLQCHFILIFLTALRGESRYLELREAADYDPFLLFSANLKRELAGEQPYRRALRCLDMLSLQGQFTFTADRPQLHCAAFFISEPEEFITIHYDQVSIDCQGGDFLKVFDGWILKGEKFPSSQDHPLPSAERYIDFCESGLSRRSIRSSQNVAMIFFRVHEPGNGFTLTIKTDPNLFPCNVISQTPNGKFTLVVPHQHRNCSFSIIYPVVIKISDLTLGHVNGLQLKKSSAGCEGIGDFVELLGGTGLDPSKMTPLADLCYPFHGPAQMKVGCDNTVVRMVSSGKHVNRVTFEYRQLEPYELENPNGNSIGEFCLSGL
Briefly: Dose Response confirmation of uHTS hits for small molecule antagonists of the CRF-binding protein and CRF-R2 receptor complex. Format: functional. As to conditions: read-out: IC50_Mean.

Assay [5] deals with T2, Corticotropin-releasing factor receptor 2/Corticotropin-releasing factor-binding protein. Briefly: activators of CRF receptor 2 with binding protein – uHTS hits, confirmation (AID 602473). Format: functional. As to conditions: read-out: EC50_Mean.
Assay [6] can be described thus: microbe, parasite or virus in culture. It is filed as functional. As to conditions: Mycobacterium tuberculosis.
The subject of a further assay is H9c2. The assay can be described thus: cells. It is filed as functional, cell-based. As to conditions: Rattus norvegicus, H9c2, Myocardium.
The nature of assay [7]: inhibitors of intracellular T. cruzi replication, confirmation, NIH3T3 host cells, beta-gal luminescence (AID 2044).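 Note: intracellular parasites grown in NIH/3T3 mouse fibroblasts as host cells; luminescent beta-galactosidase reporter signal from transgenic T. cruzi replicating inside host cells; inhibitors lower the luminescence signal.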 Format: functional, cell-based.
Assay [8] is described as follows: cytotoxicity toward NIH3T3 fibroblasts, dose response, counter-screen, cell-based, ATP luminescence, mouse fibroblasts (AID 2010).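 Note: cells exposed to compound for about 90 hours before reading.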 It is filed as functional.
The nature of assay [9]: Shn3 3'UTR reporter inhibitors, dose response, cell-based, Clone20 osteoblasts, firefly luciferase, cherry-picked (AID 624132).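 Note: firefly luciferase luminescence from reporter carrying the Shn3 3'UTR in osteoblasts.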 It is filed as functional.
Assay [10] can be described thus: HepG2 cell cytotoxicity, dose response, cytotoxicity control for Shn3 inhibitor project, CellTiter-Glo, cherry-picked (AID 624134). It is filed as functional, cell-based.
A short description of assay [11]: control 3'UTR Renilla luciferase suppression, dose response, counter-screen for Shn3 inhibitor project, cell-based, Clone20-Shn3RL, cherry-picked (AID 624133). Format: functional.
Assay [12] concerns the target T3, RNA-binding protein pos-1 (Caenorhabditis elegans, UniProt G5EF15).
T3 sequence (G5EF15 whole entry): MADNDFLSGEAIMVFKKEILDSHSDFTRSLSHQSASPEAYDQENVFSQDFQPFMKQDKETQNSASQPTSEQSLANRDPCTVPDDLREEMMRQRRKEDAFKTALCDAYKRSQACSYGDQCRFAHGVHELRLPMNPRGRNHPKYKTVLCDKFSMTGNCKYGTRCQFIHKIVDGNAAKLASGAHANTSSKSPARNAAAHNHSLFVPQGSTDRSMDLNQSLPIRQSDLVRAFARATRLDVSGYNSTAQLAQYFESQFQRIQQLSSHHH
Briefly: inhibitors of POS-1/mex-3 RNA binding, dose response, biochemical, fluorescence polarization (AID 1964).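 Note: purified POS-1 fused to maltose binding protein made in E. coli; potency of compounds blocking POS-1 binding to fluorescent RNA.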 For orientation: Polarisation of emitted light reports the rotation of a fluorescent probe.

In the next assay the target is Large T antigen (Simian virus 40, UniProt P03070). Format: functional, Betapolyomavirus macacae.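 Note: Confirmatory-stage PubChem screen for compounds that inhibit SV40 T antigen.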
The nature of assay [13]: inhibitors of HIV Env-driven cell fusion, dose response, cherry-pick (AID 652057). Format: functional, cell-based.

Activity calls are given as the source filed them. Bounds are passed on as bounds.

Luciferin 4-monooxygenase, sequence (P08659 whole entry): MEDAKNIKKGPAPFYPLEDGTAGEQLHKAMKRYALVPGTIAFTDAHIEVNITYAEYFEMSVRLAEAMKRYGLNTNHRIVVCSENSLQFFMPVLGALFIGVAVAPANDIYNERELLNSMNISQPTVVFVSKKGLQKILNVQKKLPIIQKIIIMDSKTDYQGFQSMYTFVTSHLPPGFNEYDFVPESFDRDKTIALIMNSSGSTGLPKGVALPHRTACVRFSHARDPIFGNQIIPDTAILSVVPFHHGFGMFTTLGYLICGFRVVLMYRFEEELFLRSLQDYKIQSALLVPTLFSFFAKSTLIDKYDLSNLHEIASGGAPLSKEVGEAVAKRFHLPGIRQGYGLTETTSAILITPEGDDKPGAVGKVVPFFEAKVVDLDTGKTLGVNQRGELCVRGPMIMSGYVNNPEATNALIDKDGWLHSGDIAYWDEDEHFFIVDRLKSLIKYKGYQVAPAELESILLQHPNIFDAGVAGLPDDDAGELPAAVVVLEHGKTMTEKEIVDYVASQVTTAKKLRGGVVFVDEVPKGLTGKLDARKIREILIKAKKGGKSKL
Paired box protein Pax-8, sequence (Q06710 whole entry): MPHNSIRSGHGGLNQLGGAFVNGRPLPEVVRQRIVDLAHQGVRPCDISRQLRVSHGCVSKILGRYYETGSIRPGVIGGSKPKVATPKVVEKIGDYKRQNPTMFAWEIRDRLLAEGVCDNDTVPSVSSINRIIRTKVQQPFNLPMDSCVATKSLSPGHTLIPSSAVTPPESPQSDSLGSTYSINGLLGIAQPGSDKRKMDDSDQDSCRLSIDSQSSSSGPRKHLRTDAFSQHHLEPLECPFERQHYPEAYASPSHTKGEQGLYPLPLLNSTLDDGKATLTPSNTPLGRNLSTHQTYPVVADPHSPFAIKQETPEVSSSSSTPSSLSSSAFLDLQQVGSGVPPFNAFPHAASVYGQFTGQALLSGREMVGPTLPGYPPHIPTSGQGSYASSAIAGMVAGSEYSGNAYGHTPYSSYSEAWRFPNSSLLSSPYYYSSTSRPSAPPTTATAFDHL
Large T antigen, sequence (P03070 whole entry, the tested form may be a part): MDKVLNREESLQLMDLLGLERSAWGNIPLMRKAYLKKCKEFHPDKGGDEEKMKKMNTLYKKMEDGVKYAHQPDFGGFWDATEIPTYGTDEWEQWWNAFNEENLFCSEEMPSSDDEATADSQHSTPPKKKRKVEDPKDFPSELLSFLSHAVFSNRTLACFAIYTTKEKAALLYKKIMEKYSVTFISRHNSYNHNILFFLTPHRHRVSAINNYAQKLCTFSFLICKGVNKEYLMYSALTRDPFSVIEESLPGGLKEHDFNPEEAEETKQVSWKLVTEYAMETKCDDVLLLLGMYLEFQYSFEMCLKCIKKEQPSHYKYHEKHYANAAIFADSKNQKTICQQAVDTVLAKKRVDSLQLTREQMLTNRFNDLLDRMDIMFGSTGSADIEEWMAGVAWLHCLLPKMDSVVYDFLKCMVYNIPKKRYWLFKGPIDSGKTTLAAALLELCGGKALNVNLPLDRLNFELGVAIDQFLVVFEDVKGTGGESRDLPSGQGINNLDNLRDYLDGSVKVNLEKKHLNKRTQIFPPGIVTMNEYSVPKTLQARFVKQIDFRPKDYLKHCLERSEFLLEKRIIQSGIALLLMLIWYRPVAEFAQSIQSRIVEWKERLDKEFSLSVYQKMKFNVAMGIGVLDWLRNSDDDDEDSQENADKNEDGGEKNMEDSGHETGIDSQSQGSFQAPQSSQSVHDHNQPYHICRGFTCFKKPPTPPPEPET

On to `Cc1cccc(OCC(=O)N2CCN(C(=O)c3cccs3)CC2)c1`, for which the EC50 in assay [1] and in assay [2] was > 112 µM (not active) in each case. For `O=C(NN=C(c1ccccc1)c1ccccn1)c1ccccc1`, the AC50 (as a rule, the concentration giving half of the maximal activity seen) in the assay on INS1 was 0.736 µM (active). In addition, the CC50 in the assay on Vero is 3.11 µM (active). With `COc1cc(OC)c(C2N(C)c3ccccc3N2C)cc1OC`, the EC50 in assay [3] is 1.33 µM (active).

`C[C@H]1CN([C@@H](C)CO)C(=O)c2ccccc2-c2ccccc2CO[C@H]1CN(C)S(=O)(=O)c1ccc(C(F)(F)F)cc1`: the AC50 at Paired box protein Pax-8 was 9.62 µM (active).

`COc1ccccc1CN1CCCC(C(=O)N(C)Cc2ccccc2)C1` (stereo unspecified): the IC50 in [4] is > 47.1 µM (inactive). For the same compound, the EC50 in assay [5] was > 53 µM (inactive).

For `O=C1CCc2ccc(OCCCCN3CCN(c4cccc(Cl)c4Cl)CC3)cc2N1` [ARIPIPRAZOLE], in assay [6], the CC50 was 29.4 µM (active). For `Cc1cnc(C=O)c2cccc([N+](=O)[O-])c12`, the IC50 with H9c2 is > 79 µM (inactive). As for `C[C@@H]1CCCCO[C@@H](CN(C)CC2CC2)[C@@H](C)CN([C@H](C)CO)C(=O)c2cc(N(C)C)ccc2O1`, in assay [4], the IC50 is > 47.1 µM (inactive). For the same compound, the EC50 in assay [5] was > 53 µM (inactive).

Turning to `Cc1sc(NC(=O)c2ccco2)c(C(c2ccccc2)N2CCC(C)CC2)c1C` (stereo unspecified), the EC50 in assay [7] is 1.09 µM (active); in assay [8] it was > 60 µM (not active). In addition, in the assay with Vero, the CC50 is 14.1 µM (active). On to `COc1ccc(SCC(=O)Nc2ccccc2Cl)cc1`, for which the IC50 in assay [4] is > 47.1 µM (inactive). The EC50 in [5] was > 53 µM (inactive). For `CC(C)CC(C(=O)Nn1cnnc1)N1C(=O)c2ccccc2C1=O` (stereo unspecified) the same measures were > 47.1 µM (inactive) and > 53 µM (inactive).

As to `CC(C)(C)NC(=O)c1cccc(NC(=O)c2ccc(NC(=O)c3ccco3)cc2)c1`, the IC50 in the assay on H9c2 was > 79 µM (inactive). On the same count and under the same terms, as for `O=C(COc1ccccc1[N+](=O)[O-])Nc1ccc(N2CCN(C(=O)c3cccs3)CC2)cc1`, the figure is > 79 µM (inactive). Regarding `O=C(NCCCN1CCOCC1)c1ccccc1`, the EC50 in assay [1] and in assay [2] was > 112 µM (not active) each time. In the case of `CC(=O)Nc1ccc(N2C(C(C)=O)=NN(c3ccc(Cl)cc3)C2c2sccc2C)cc1` (stereo unspecified), the CC50 in [6] was > 40 µM (active). Consider `CC(C)=CCN1CCN(Cc2cccc3nonc23)CC1CCO` (stereo unspecified), for which the EC50 in [3] is 2.99 µM (active).

With `CCN(Cc1ccccc1)C(=O)c1cc2c(=O)oc3ccc(C)cc3c2s1`, in the assay with H9c2, the IC50 was > 79 µM (inactive). On to `O=C(C1CCC1)N1CCCCN2[C@H](CO)[C@H](c3ccc(-c4cccc(F)c4)cc3)[C@H]2C1`, for which the AC50 on Paired box protein Pax-8 was 19.1 µM (active).

Regarding `COc1ccc(-c2nc(NC(=O)Cn3ccc(C(F)(F)F)n3)sc2C)cc1`, the CC50 in assay [6] was > 40 µM (active). Take `O=C(CCN1CCc2ccccc2C(O)(c2ccccc2)C1)c1ccc2c(c1)OCCO2` (stereo unspecified): in [3], the EC50 was 8.41 µM (active). Besides, the AC50 in assay [9] is 23.1 µM (active); in assay [10], 63.3 µM (active); in [11], 11.4 µM (active). As to `COc1ccc(S(=O)(=O)NNC(=O)C(=O)NNc2ccccn2)cc1`, in assay [12], the EC50 was > 300 µM (not active). For `CCCN1CN(Cc2ccco2)c2nc3ccccc3n2C1`, the EC50 in [3] was 1.88 µM (active). Turning to `CN(C)c1ccc(NC(=O)CN2C3CCCC2CC(NC(=O)c2ccccc2)C3)cc1` (stereo unspecified), on Large T antigen, the IC50 was 7.46 µM (active). For the same compound, the EC50 in assay [3] was 3.35 µM (active). In the case of `CCCNC(=O)C[C@@H]1C[C@H]2c3cc(NC(=O)Cc4ccncc4)ccc3O[C@H]2[C@@H](CO)O1`, the concentration at half-maximal activity (AC50) in assay [13] was 55.2 µM (active). For the compound `CC(=O)c1c(S)nc(-c2ccccc2)nc1N1CCN(C)CC1`, the EC50 in assay [1] and in assay [2] was > 112 µM (not active) each time.

Regarding `Cc1ccc(Cn2c(CCNc3nc(-c4ccc(Cl)c([N+](=O)[O-])c4)cs3)nc3cc(C(=O)NCCCO)ccc32)cc1`, the IC50 in the assay on H9c2 was 47.7 µM (inactive). As for `CN(C(=S)NC(=O)c1ccc(Cl)cc1)C1CCCCC1`, in assay [6], the CC50 is > 40 µM (active). Take `Cc1ccc(S(=O)(=O)N2[C@@H](c3ccc(Br)cc3)C(C(=O)O)=CC[C@H]2c2cccc(C)c2)cc1`: the IC50 in [4] is > 47.1 µM (inactive). Moreover, in assay [5], the EC50 was > 53 µM (inactive).

In the case of `Cn1c2ccccc2c(=O)c2ccc(NCc3ccc4c(c3)OCO4)cc21`, the IC50 in the assay with H9c2 is 15.2 µM (active). As to `Cc1ccc(-c2nnc(SCC(=O)N3CCN(c4ccccc4)CC3)o2)cc1`, the IC50 in [4] was > 47.1 µM (inactive). Moreover, the EC50 in [5] was > 53 µM (inactive).

`COc1cccc(C(=O)NCc2nnc(SCC(=O)Nc3nccs3)n2-c2ccccc2)c1`: the EC50 in assay [1] and in assay [2] was > 112 µM (not active) in each case. In the case of `COCCn1c(SCc2cccc([N+](=O)[O-])c2)nc2ccccc2c1=O`, the EC50 in assay [3] was 1.68 µM (active). As for `Cc1ccc(N(CCC#N)C(=O)CSc2nc(O)c3ccccc3n2)cc1`, the IC50 with H9c2 is 35.4 µM (inactive).

For the compound `O=C(Nc1ccc(F)cc1)N1CCN2C(=O)c3ccccc3C12c1ccccc1` (stereo unspecified), in [3], the EC50 was 1.68 µM (active).
